Laboratory results as given in patent US20120122870A1, “Treatment Of Ischemia-Reperfusion Injury” (MUSC FOUNDATION FOR RESEARCH DEVELOPMENT, priority 2009, published 2012).

How the values were obtained:
recombinant human SK = target: T1, recombinant human SK (Homo sapiens, UniProt Q9NYA1); assay: Recombinant human SK activity assay ([3H]sphingosine to [3H]S1P); assay type: biochemical; details: Human SK incubated with 6 μg/mL of compound; percentage of SK activity inhibited
T1 construct: GST (glutathione-S-transferase) (N); made in house; host or cells: bacteria (pGEX bacterial expression vector)

[1] = system: endogenous SK activity in MDA-MB-231 cells; assay: Cellular S1P production (endogenous SK activity) in MDA-MB-231 cells; assay type: cell-based; details: for inhibition at 20 µg/mL / IC50: Homo sapiens; for inhibition at 20 µg/mL: MDA-MB-231, MDA-MB-231 cells incubated with 20 μg/mL of compound; for inhibition at 20 µg/mL / Cellular S1P (% inhibition): percentage of S1P production inhibited; for IC50: MDA-MB-231 cells, varying concentrations, concentration inhibiting S1P production by 50%; for Cellular S1P (% inhibition): MDA-MB-231 cells incubated with 20 μg/mL of compound
How it was run: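 MDA-MB-231 cells treated with 20 μg/mL compound and assayed for endogenous SK activity, reported as % inhibition of S1P production. For IC50, cells received varying compound concentrations and S1P produced was measured; IC50 is the concentration giving 50% inhibition.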

T1 sequence (Q9NYA1 whole entry): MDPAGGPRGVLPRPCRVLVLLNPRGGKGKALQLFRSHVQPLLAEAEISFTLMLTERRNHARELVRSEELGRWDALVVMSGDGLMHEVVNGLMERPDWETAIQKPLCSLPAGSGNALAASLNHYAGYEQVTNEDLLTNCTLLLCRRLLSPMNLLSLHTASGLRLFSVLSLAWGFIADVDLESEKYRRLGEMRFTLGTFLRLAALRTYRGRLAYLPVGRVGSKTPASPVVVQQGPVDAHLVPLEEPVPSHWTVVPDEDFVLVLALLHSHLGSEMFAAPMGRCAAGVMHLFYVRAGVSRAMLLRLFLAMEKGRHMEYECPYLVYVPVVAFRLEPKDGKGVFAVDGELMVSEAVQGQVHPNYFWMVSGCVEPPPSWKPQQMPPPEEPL

Row | SMILES | inhibition at 6 µg/mL (recombinant human SK) [%] | inhibition at 20 µg/mL [1] [%] | IC50 [1] [µM] | Recombinant SK (% inhibition) (recombinant human SK) [%] | Cellular S1P (% inhibition) [1] [%]
1 | CN1CCN(NCC23CC4CC(C2)CC(c2ccc(Cl)cc2)(C4)C3)CC1 [A83, [3-(4-Chloro-phenyl)-adamantan-1-ylmethyl]-(4-methyl-piperazin-1-yl)-amine] | 60 | 88 | 16 |  | 
2 | O=C(NCc1ccncc1)C12CC3CC(CC(C3)C1)C2 [A63, Adamantane-1-carboxylic acid (pyridin-4-ylmethyl)-amide] |  |  |  | 0 | 39
3 | CN1CCC(NC(=O)C23CC4CC(CC(C4)C2)C3)CC1 [A50, Adamantane-1-carboxylic acid (1-methyl-piperidin-4-yl)-amide] | 0 | 44 |  |  | 
4 | O=C(NCc1ccncc1)C12CC3CC(C1)CC(c1ccc(F)cc1)(C3)C2 [A61, 3-(4-Fluoro-phenyl)-adamantane-1-carboxylic acid (pyridin-4-ylmethyl)-amide] | 58 | 24 |  |  | 
5 | CCCCCCCCCCCCCCCC(=O)Nc1nc(-c2ccc(Cl)cc2)cs1 [B3, Hexadecanoic acid [4-(4-chloro-phnyl)-thiazol-2-yl]-amide] |  |  |  | 88 | 34
6 | O=C(NCCc1ccncc1)C12CC3CC(C1)CC(c1ccc(Cl)cc1)(C3)C2 [A64, 3-(4-Chloro-phenyl)-adamantane-1-carboxylic acid (2-pyridin-4-yl-ethyl)-amide] | 41 | 80 | 63 |  | 
7 | O=C(Nc1ccc(O)cc1)C12CC3CC(CC(C3)C1)C2 [A5, Adamantane-1-carboxylic acid (4-hydroxy-phenyl)-amide] | 100 | 17 |  |  | 
8 | CC(C)(C)c1ccc(CNC(=O)C23CC4CC(C2)CC(c2ccc(Cl)cc2)(C4)C3)cc1 [A13, 3-(4-Chloro-phenyl)-adamantane-1-carboxylic acid 4-tert-butyl-benzylamide] | 78 | 0 |  |  | 
9 | O=C(Nc1nc(-c2ccc(Cl)cc2)cs1)C12CC3CC(C1)CC(c1ccc(Cl)cc1)(C3)C2 [A70, 3-(4-Chloro-phenyl)-adamantane-1-carboxylic acid [4-(4-chloro-phenyl)-thiazol-2-yl]-amide] | 33 | 4 |  |  | 
10 | Cc1cc2cc(NC(=O)C34CC5CC(C3)CC(c3ccc(Cl)cc3)(C5)C4)ccc2[nH]1 [A66, 3-(4-Chloro-phenyl)-adamantane-1-carboxylic acid (2-methyl-1H-indol-5-yl)-amide] | 92 | 8 |  |  | 
11 | O=C(NCCN1CCOCC1)C12CC3CC(C1)CC(c1ccc(Cl)cc1)(C3)C2 [A58, 3-(4-Chloro-phenyl)-adamantane-1-carboxylic acid (2-morpholin-4-yl-ethyl)-amide] | 67 | 55 |  |  | 
12 | O=C(Nc1ccc(O)cc1O)C12CC3CC(C1)CC(c1ccc(Cl)cc1)(C3)C2 [A8, 3-(4-Chloro-phenyl)-adamantane-1-carboxylic acid (2,4-dihydroxy-phenyl)-amide] | 49 | 0 |  |  | 
13 | O=C(NCCc1ccc(Br)cc1)C12CC3CC(C1)CC(c1ccc(Cl)cc1)(C3)C2 [A39, 3-(4-Chloro-phenyl)-adamantane-1-carboxylic acid [2-(4-bromo-phenyl)-ethyl]-amide] | 19 | 26 |  |  | 
14 | O=C(NCc1ccc(Oc2ccccc2)cc1)C12CC3CC(C1)CC(c1ccc(Cl)cc1)(C3)C2 [A41, 3-(4-Chloro-phenyl)-adamantane-1-carboxylic acid 4-phenoxy-benzylamide] |  | 23 |  | 67 | 
15 | CCn1c2ccccc2c2cc(NC(=O)C34CC5CC(C3)CC(c3ccc(Cl)cc3)(C5)C4)ccc21 [A68, 3-(4-Chloro-phenyl)-adamantane-1-carboxylic acid (9-ethyl-9H-carbazol-3-yl)-amide] | 17 | 0 |  |  | 
16 | N#CCc1ccc(NC(=O)C23CC4CC(CC(C4)C2)C3)cc1 [A10, Adamantane-1-carboxylic acid (4-cyanomethyl-phenyl)-amide] | 3 | 9 |  |  | 
17 | O=C(NCc1ccncc1)C12CC3CC(C1)CC(c1ccc(Cl)cc1)(C3)C2 [A62, 3-(4-Chloro-phenyl)-adamantane-1-carboxylic acid (pyridin-4-ylmethyl)-amide] | 13 | 92 | 26 |  | 
18 | N#CCc1ccc(NC(=O)C23CC4CC(C2)CC(c2ccc(Cl)cc2)(C4)C3)cc1 [A11, 3-(4-Chloro-phenyl)-adamantane-1-carboxylic acid (4-cyanomethyl-phenyl)-amide] | 17 | 0 |  |  | 
